Assay results from patent US20250304610A1, “TREHALOSE-BASED SURFACTANTS” (priority 2022, published 2025).

Experiments:
[1] = tested on: SARS-CoV-2 spike-expressing HEK293 cells; format: cell-based
[2] = tested on: antibody; experiment: Antibody aggregation assessed by DLS after freeze-drying and storage; format: physicochemical; settings: antibody 1 mg/mL, reconstituted with MilliQ water
Experimental: 500 uL of 1 mg/mL antibody formulations were placed in a vial prior to deep-freeze in liquid nitrogen. The frozen samples were placed directly in the freeze-dryer. After 24 hr, the lyophilized samples were stored in a fridge at 4° C. for 7 or 28 days. The sample were then reconstituted with addition of MilliQ® water before assessing their stability by DLS and cell binding assays.
The aggregation of antibody was assessed by dynamic light scattering (DLS) operating at 25° C. The measurements were done at different timepoints during storage at […] and right after nebulization.
The mean hydrodynamic diameter by intensities of the monomer was distributed at d=10 nm while aggregates was distributed at a d >10 nm.
The addition of 5.6 mM C16Tre1S and C8Tre1S trehalose surfactants as cryoprotectant was assessed on 1 mg/mL antibody formulations. The samples were first deep-frozen in liquid nitrogen before drying for 24 hr. The lyophilized samples were stored in a fridge for 0, 7 or 28 days before reconstitution with addition of MilliQ® water. The conformation and functionality of antibody after the process were assessed by DLS and cell binding assays respectively. The results were compared to antibody formulated in PBS only and formulated with standard cryoprotectants such as trehalose (5 wt % and 5.6 mM) and Tween 80 (5.6 mM).

| Compound | antibody binding to Spike protein after nebulization of the reconstituted formulation [1] | antibody binding to spike-expressing HEK293 cells after lyophilization (fluorescence signal) [1] | antibody aggregation after freeze-drying (DLS) ([2]; excipient 5.6 mM) | antibody aggregation after freeze-drying (DLS) ([2]; excipient 5 wt %) |
| --- | --- | --- | --- | --- |
| CCCCCCCC/C=C\CCCCCCCC(=O)OCCOCC(OCCO)C1OCC(OCCO)C1OCCO (stereo not drawn) [Tween 80] | at the same level as before nebulization | Comparable results | Comparable results | – |
| OC[C@H]1O[C@H](O[C@H]2O[C@H](CO)[C@@H](O)[C@H](O)[C@H]2O)[C@H](O)[C@@H](O)[C@@H]1O [Trehalose] | – | significant decrease of antibody binding | aggregations were observed | Comparable results |
